Data taken from patent publication US20260174910A1, “POROUS EXPANDING BIOCOMPATIBLE SCAFFOLDS” (DANMARKS TEKNISKE UNIVERSITET, priority 2022, published 2026).

What was measured:
[1] = Lipids/surfactants in ECell: solubility and expansion in PBS (images); type: physicochemical; conditions: for appearance of ECell compositions containing the lipid/surfactant: 1% w/w (RGD lipids 0.1%), with and without 2.5% CAB polymer; for shape of the depot compared to reference: ECells without CAB, LOIB:GTH:DMSO:Surfactant 69:10:20:1, PBS; for shape of the depot compared to reference / ECell expansion compared to the reference: 37° C.; for ECell expansion compared to the reference: LOIB:CAB:DMSO:Surfactant 66.5:2.5:30:1, PBS, reference LOIB:CAB:DMSO 67.5:2.5:30
Description: Different surfactants were formulated in expandable (w CAB, Mn 12000) vs non-expandable (w GTH) ECell formulations in a concentration of 1% w/w. […] Gel formulations containing each surfactant were prepared in 600 mg aliquots.
Duplicates consisting of 100 μL gel depots of each ECell formulation were injected into 2 mL PBS buffer. Samples were incubated at 37° C., and images of a non-expandable vs an expandable ECell containing the same surfactant side-by-side were taken at 1.5 h and 2 days and 7 days post injection to investigate and document surfactant effects on ECell expansion.

[2] = Solvent type and ECell expansion in PBS (visual inspection of images); type: physicochemical; conditions: LOIB:CAB (Mn 12000):Solvent 67.5:2.5:30, 100 μL in 2 mL PBS, 37° C., 1.5 h, 2 days, 7 days pi
Description: These ECells were prepared to study eventual surface and expansion effects of the specific solvent type on LOIB:CAB compositions. ECell formulations were prepared in 900 mg aliquots. 12 h stability at room temperature (RT) was investigated and documented in images. Only soluble formulations of appropriate viscosity were injected as gel depots into PBS (100 μL, for visual inspection). Duplicates consisting of 100 μL ECell depots of each clear formulation were injected into 2 mL PBS buffer for inspection. Samples were kept at 37° C., and images of each injected gel depot composition were recorded at 1.5 h and 2 days and 7 days post injection (pi) to investigate and document effects of solvent type on the depots.

[3] = cited from earlier work
[4] = Description: After addition of LOIB and DMSO, each ECell formulation was sonicated at 75° C. for 2 hrs and vortexed every 30th minute.
[5] = In vitro release of MMP / gp-130 inhibitors from expanding ECells (RHPLC); type: physicochemical; conditions: 5 mg/g in LOIB:CAB(12 kDa):DMSO (65:5:30), dPBS, 37° C.
Description: The in vitro release profile of three inhibitor compounds were elucidated from a LOIB:CAB(12 kDa):DMSO (65:5:30) formulation. […] Loading of inhibitors were done by adding the desired concentration in mg per g of expanding ECells and stirring on a magnetic stirrer at room temperature until the solution became clear.
Each compound was loaded as 5 mg/g in the expanding ECell formulation and injected in 4 ml Dulbecco's Phosphate-buffered Saline (dPBS) as ≈100 μl, in triplicates, and incubated at 37° C. At chosen time points (see FIG. 19a), all dPBS was removed by pipetting, the expanding ECells+potentially absorbed water was weighed, and its weight noted down, 1 ml dPBS was collected for release quantification, and the remaining dPBS+fresh dPBS to a total of 4 ml (4 g) was added.
Weight data was used to generate a graph of the relative expanding ratio as a function of time (FIG. 19b), and from the 1 ml collected, RHPLC analysis was carried out. […] Solution A was an aqueous mixture of 5% v/v MeCN and 0.01% TFA.

[6] = In vitro release of antimicrobials from expanding ECells (RHPLC); type: physicochemical; conditions: dPBS, 37° C., FIG. 18
Description: Each formulation was loaded with antimicrobial in varying concentrations (see Table 1) and was injected as ≈100 μl into 4 ml Dulbecco's Phosphate-buffered Saline (dPBS), in a glass vial, and incubated at 37° C. in atmospheric air, only taken out when samples were collected and new dPBS was added. Sample collection proceeded by removing all dPBS possible with a pipette, weighing the expanding ECells, then saving 1 ml for analysis, returning the rest, and adding new dPBS until 4,000 mg of water was present.
At each chosen time point, 1 ml of the release medium was collected and RHPLC analysis was carried out. […] Solution A was an aqueous mixture of 5% v/v MeCN and 0.01% TFA. […] Rifamycin splits into several peaks over time, and the total AUC of all peaks were used for quantification and standard curve generation.

| Compound | appearance of ECell compositions containing the lipid/surfactant [1] | ECell expansion compared to the reference [1] | expansion of the ECell by solvent, as judged by the eye [2] | further results |
| --- | --- | --- | --- | --- |
| Tween 80 | Homogeneous | slightly reduced | – | shape of the depot compared to reference [1]: slight flattening of the depot compared to reference |
| CCCCCCCC/C=C\CCCCCCCC(=O)O [Oleic acid] | – | slightly reduced | – | – |
| OCc1ccccc1 [BnOH, Benzyl alcohol] | – | – | did not expand | – |
| CNC(=O)[C@H](Cc1ccccc1)NC(=O)[C@H](CC(C)C)[C@H](CSc1cccs1)C(=O)NO [Batimastat] | – | – | – | log P [3]: 3.27 |
| PEG(10)-monolaurate | Homogeneous | slightly reduced | – | – |
| 1,2-Dimyristoyl-rac-glycero-3-methoxypolyethylene glycol-2000 [DMG-PEG2K] | Homogeneous | slightly reduced | – | – |
| C[S+](C)[O-] [DMSO, Dimethyl sulphoxide] | – | – | cause expansion of the ECell | – |
| CC(C)CCC[C@@H](C)[C@H]1CC[C@H]2[C@@H]3CC=C4C[C@@H](OC(=O)CCC(=O)O)CC[C@]4(C)[C@H]3CC[C@]12C [CHEMS, cholesteryl hemisuccinate] | Homogeneous | relatively similar to the reference | – | shape of the depot compared to reference [1]: slight flattening of the depot compared to reference |
| Cellulose Acetate [Cellulose Acetate (Mn=30,000)] | – | – | – | solubility in LOIB:DMSO ECell [4]: insoluble |
| CN1CCCC1=O [NMP, N-methyl pyrrolidone] | – | – | cause expansion of the ECell | – |
| O=S(=O)(CC1CS1)c1ccc(Oc2ccccc2)cc1 (stereo not shown) [SB-3CT] | – | – | – | cargo released in vitro after 42 days [5]: about 5%; log P [3]: 2.75 |
| CCCCCCCCCCCC(=O)O [Lauric acid] | Homogeneous | relatively similar to the reference | – | – |
| CCO [EtOH, Ethanol] | – | – | did not expand | – |
| CCCCCCCCCCCC(=O)OCC(O)CO (stereo not shown) [Monolaurin] | Homogeneous | relatively similar to the reference | – | – |
| CC1COC(=O)O1 (stereo not shown) [PC, Propylene carbonate] | – | – | did not expand | – |
| CCCCOC(C)=O [BuAc, Butyl acetate] | – | – | did not expand | – |
| CO[C@H]1/C=C/O[C@@]2(C)Oc3c(C)c(O)c4c(O)c(cc(O)c4c3C2=O)NC(=O)/C(C)=C\C=C\[C@H](C)[C@H](O)[C@@H](C)[C@@H](O)[C@@H](C)[C@H](OC(C)=O)[C@@H]1C [Rifamycin SV] | – | – | – | in vitro release rate (comparison in words) [6]: relatively slower release rate; log P [3]: 4.17 |
| PEG(20)-monooleyl ether | Homogeneous | – | – | – |
| LMT-28 | – | – | – | cargo released in vitro after 42 days [5]: 10%; log P [3]: 3.71 |
| CN(C)C=O [DMF, Dimethyl formamide] | – | – | cause expansion of the ECell | – |
